US7557066B2, “Use of sulfonylureas” (Bayer CropScience AG, priority 2004, dated 2009)

Tests used:
[1] = tested on: CIRAR; assay: Inhibition of revegetation of perennial plants; assay type: in vivo; details: 600 g of a.i./ha; cut four weeks after application, scored after a further four weeks; 100% = total inhibition
Description: (§1) […] Four weeks after the application, the above-ground parts of the plants were cut off. After a further four weeks, the inhibition of revegetation was scored in percent of the control, 100% corresponding to a total inhibition of revegetation.

[2] = tested on: LOLPE; assay: Inhibition of revegetation of perennial plants; assay type: in vivo; details: 600 g of a.i./ha; cut four weeks after application, scored after a further four weeks; 100% = total inhibition
Description: as §1

[3] = tested on: monocotyledonous and dicotyledonous weed plants; assay: Pre-emergence effect on weeds (greenhouse, visual scoring); assay type: in vivo, weed grasses and broad-leaved weeds; details: 100 g or less of active substance per hectare; against Sinapsis alba, Chrysanthemum segetum, Avena sativa, Stellaria media, Echinochloa crus-galli, Lolium multiflorum, Setaria viridis, Abutilon theophrasti, Amaranthus retroflexus, Brachiaria plantaginea, Solanum nigrum, Euphorbia heterophylla, Sorghum halepense, Panicum miliaceum; scored after 3 to 4 weeks
Description: Seeds or rhizome pieces of monocotyledonous and dicotyledonous weed plants were placed in sandy loam soil in cardboard pots and covered with soil. The compounds of the formula (I) or their salts, formulated in the form of wettable powders or emulsion concentrates, were then applied to the surface of the soil cover in the form of aqueous suspensions or emulsions at an application rate of 600 to 800 l of water/ha (converted) in various dosages.
After the treatment, the pots were placed in a greenhouse and kept under good growth conditions for the weeds. After the test plants had emerged, the damage to the plants or the negative effect on the emergence was scored visually after a test period of 3 to 4 weeks by comparison with untreated controls. As shown by the test results, the compounds tested have good herbicidal pre-emergence activity against a broad spectrum of weed grasses and broad-leaved weeds. […] Post-Emergence Effect on Weeds

[4] = tested on: soybeans (Glycine max.); assay: Crop plant compatibility (greenhouse, visual scoring); assay type: in vivo; details: for damage to crops of leguminous plants, such as soybeans: pre-emergence or post-emergence method, various dosages, visual scoring four to five weeks after application
Procedure: In further greenhouse experiments, seeds of a substantial number of crop plants and weeds were placed into sandy loam soil and covered with soil. Some of the pots were treated immediately as described under Section 1, and the remaining pots were placed in a greenhouse until the plants had developed two to three true leaves and then sprayed with various dosages of the compounds of the formula (I) or salts thereof, as described in Section 2.

[5] = tested on: monocotyledonous and dicotyledonous weeds; assay: Post-emergence effect on weeds (greenhouse, visual scoring); assay type: in vivo, weed grasses and broad-leaved weeds; details: 100 g or less of active substance per hectare; against Sinapsis alba, Echinochloa crus-galli, Lolium multiflorum, Chrysanthemum segetum, Setaria viridis, Abutilon theophrasti, Amaranthus retroflexus, Panicum miliaceum, Brachiaria plantaginea, Solanum nigrum, Euphorbia heterophylla, Sorghum halepense, Avena sativa; scored after about 3 to 4 weeks
Procedure: (§2) Seeds or rhizome pieces of monocotyledonous and dicotyledonous weeds were placed in a sandy loam soil in plastic pots, covered with soil and cultivated in a greenhouse under good growth conditions. Three weeks after sowing, the test plants were treated at the three-leaf stage. The compounds of the formula (I) or their salts, formulated as wettable powders or as emulsion concentrates, were sprayed, at various dosages, onto the green parts of the plants at an application rate of 600 to 800 l of water/ha (converted). After the test plants had remained in the greenhouse for about 3 to 4 weeks under optimum growth conditions, the effect of the preparations was scored visually by comparison with untreated controls. The tested compounds also have good herbicidal post-emergence activity against a broad spectrum of economically important weed grasses and broad-leaved weeds. […] Crop Plant Compatibility

[6] = tested on: Solanum nigrum; assay: Post-emergence effect on weeds; assay type: in vivo; details: 30 g of active substance per hectare
Procedure: as §2

[7] = tested on: Amaranthus retroflexus; assay: Post-emergence effect on weeds; assay type: in vivo; details: 30 g of active substance per hectare
Procedure: as §2

[8] = tested on: Echinochloa crus-galli; assay: Post-emergence effect on weeds; assay type: in vivo; details: 30 g of active substance per hectare
Procedure: as §2

[9] = tested on: Brachiaria plantaginea; assay: Post-emergence effect on weeds; assay type: in vivo; details: 30 g of active substance per hectare
Procedure: as §2

[10] = tested on: Setaria viridis; assay: Post-emergence effect on weeds; assay type: in vivo; details: 30 g of active substance per hectare
Procedure: as §2

| SMILES | herbicidal action in the pre-emergence method [3] | damage to crops of leguminous plants, such as soybeans [4] | herbicidal action by the post-emergence method [5] | other results |
| --- | --- | --- | --- | --- |
| O=C(O)CNCP(=O)(O)O [Glyphosate] | – | – | – | inhibition of revegetation, CIRAR [1]: 25%; inhibition of revegetation, LOLPE [2]: 35% |
| CCOc1cc(OC)nc(NC(=O)NS(=O)(=O)c2ncccc2C2=NOCCO2)n1 [I-1] | very good herbicidal action | did not damage | very good herbicidal action | – |
| COc1cc(C)nc(NC(=O)[N-]S(=O)(=O)c2ncccc2C2=NOCCO2)n1.[Na+] [I-3] | very good herbicidal action | did not damage | very good herbicidal action | – |
| COc1cc(N(C)C)nc(NC(=O)NS(=O)(=O)c2ncccc2C2=NOCCO2)n1 [I-8] | very good herbicidal action | did not damage | very good herbicidal action | – |
| COc1cc(Cl)nc(NC(=O)NS(=O)(=O)c2ncccc2C2=NOCCO2)n1 [I-9] | very good herbicidal action | did not damage | very good herbicidal action | herbicidal activity against Solarium nigrum [6]: 100%; herbicidal activity against Amaranthus retroflexus [7]: 93%; herbicidal activity against Echinochloa crus-galli [8]: 100%; herbicidal activity against Brachiaria plantaginea [9]: 100%; herbicidal activity against Setaria viridis [10]: 100%; damage to soybeans (Glycine max.) ([4]; 8 g of active substance per hectare): 0% |
| COc1cc(Cl)nc(NC(=O)[N-]S(=O)(=O)c2ncccc2C2=NOCCO2)n1.[Na+] [I-10] | very good herbicidal action | did not damage | very good herbicidal action | – |
| COc1cc(OC)nc(NC(=O)NS(=O)(=O)c2ncccc2C2=NOCCO2)n1 [I-11] | very good herbicidal action | did not damage | very good herbicidal action | – |
| COc1cc(OC)nc(NC(=O)[N-]S(=O)(=O)c2ncccc2C2=NOCCO2)n1.[Na+] [I-12] | very good herbicidal action | did not damage | very good herbicidal action | – |
| CCOc1cc(OCC)nc(NC(=O)[N-]S(=O)(=O)c2ncccc2C2=NOCCO2)n1.[Na+] [I-14] | very good herbicidal action | did not damage | very good herbicidal action | – |
| CCOc1cc(Cl)nc(NC(=O)NS(=O)(=O)c2ncccc2C2=NOCCO2)n1 [I-21] | very good herbicidal action | did not damage | very good herbicidal action | – |
| CCOc1cc(Cl)nc(NC(=O)[N-]S(=O)(=O)c2ncccc2C2=NOCCO2)n1.[Na+] [I-22] | very good herbicidal action | did not damage | very good herbicidal action | – |
| Cc1cc(C)nc(NC(=O)NS(=O)(=O)c2ncccc2C2=NOCCO2)n1 [I-23] | very good herbicidal action | did not damage | very good herbicidal action | – |
| Cc1cc(Cl)nc(NC(=O)NS(=O)(=O)c2ncccc2C2=NOCCO2)n1 [I-29] | very good herbicidal action | did not damage | very good herbicidal action | – |
| Cc1cc(Cl)nc(NC(=O)[N-]S(=O)(=O)c2ncccc2C2=NOCCO2)n1.[Na+] [I-30] | very good herbicidal action | did not damage | very good herbicidal action | – |
| COc1nc(NC(=O)NS(=O)(=O)c2ncccc2C2=NOCCO2)nc(OC)n1 [I-51] | very good herbicidal action | did not damage | very good herbicidal action | – |
| COc1nc(NC(=O)[N-]S(=O)(=O)c2ncccc2C2=NOCCO2)nc(OC)n1.[Na+] [I-52] | very good herbicidal action | did not damage | very good herbicidal action | – |
| COc1nc(NC(=O)[N-]S(=O)(=O)c2ncccc2C2=NOCCO2)nc(N(C)C)n1.[Na+] [I-60] | very good herbicidal action | did not damage | very good herbicidal action | – |
| CCOc1nc(Cl)nc(NC(=O)[N-]S(=O)(=O)c2ncccc2C2=NOCCO2)n1.[Na+] [I-70] | very good herbicidal action | did not damage | very good herbicidal action | – |
| CN(C)c1nc(NC(=O)NS(=O)(=O)c2ncccc2C2=NOCCO2)nc(OCC(F)(F)F)n1 [I-142] | very good herbicidal action | did not damage | very good herbicidal action | – |
| O=C(Nc1nc(Cl)cc(OCC(F)(F)F)n1)NS(=O)(=O)c1ncccc1C1=NOCCO1 [I-143] | very good herbicidal action | did not damage | very good herbicidal action | – |
| O=C([N-]S(=O)(=O)c1ncccc1C1=NOCCO1)Nc1nc(Cl)cc(OCC(F)(F)F)n1.[Na+] [I-145] | very good herbicidal action | did not damage | very good herbicidal action | – |
